Data from paper PMC7887271, “Fast acting allosteric phosphofructokinase inhibitors block trypanosome glycolysis and cure acute African trypanosomiasis in mice” (Nature Communications, 2021).
Where “and” joins values, the source holds several entries; their conditions need not be identical. Equal values may be shown once.

Tested on: T. b. brucei GVR35-Luc2
Assay: T. b. brucei GVR35-Luc2 time-to-kill assay (luciferin)
Assay type: cell-based
Settings: for Luminescence (medium-subtracted), Average: average of replicates; for % Cell viability, individual replicates / % Inhibition, individual replicates / Luminescence (medium-subtracted), individual replicates: replicate wells; for Luminescence, Average / Luminescence, individual replicates: Time to kill assay for GVR35 cells
Procedure: Enzyme activity was measured using an aldolase/TIM linked assay at 25 °C. […] Experiments were carried out in duplicate. Data are presented as mean values ± standard deviation. […] Source data are provided as a Source Data File. b Kill time of CTCB-405 compared with existing HAT drugs in the clinic. […] Over 99% of trypanosomes were killed in under 30 min compared with much slower killing rates for the other drugs. The points on the graph for CTCB-405 were determined from two independent biological replicate experiments with each time point measured twice (using duplicate technical replicates). The ESD for each point on the graph is between 0.7 and 1.4%. For drugs in clinical use each point on the graph is the average of two technical replicates from one experiment (with a maximum difference of 7.8% for any of the points). Source data are provided as a Source Data File.
As predicted from the biology of the BSF that relies wholly on glycolysis for ATP production, inhibition of the pathway results in a very fast TTK. Two experimental methods were used to measure ATP levels as a real-time indicator of viability. For Tb427 parasites, a Cell Titre Glo kit was used and for the TbGVR35 bioluminescent strain, killing was assessed by adding luciferin which requires ATP to produce a luminescent signal (Supplementary Methods 4.3 and 4.4). […] The BSF of T. brucei cannot produce ATP by oxidative phosphorylation and is solely dependent on flux through the glycolytic pathway. The clear correlation between inhibitor dose and reduction in ATP production, as observed in the TTK assays strongly supports the proposed mode of action of the CTCB compounds is by blocking glycolysis. It is a long-established experimental observation that withdrawal of glucose nutrient leads to rapid loss of motility and cell death. It has recently been shown that the BSF of T. brucei can proliferate on high levels of glycerol; however, we have shown that addition of glycerol to the medium has little effect on parasite killing by the CTCB compounds (Supplementary Table 3).
The killing of T. b. brucei GVR35-Luc2 was assessed by adding D-luciferin to live cells resulting in the production of light in the presence of ATP and luciferase activity. Compounds of interest were serially diluted from 16 µM to 0.5 µM in Modified HMI-9 medium and added into sterile white, flat bottom 96-well plate (Greiner Inc.). 32,000 trypanosomes were added to each well. The plates were incubated at 37 °C and 5% CO2. At the end of each incubation, 200 µg/ml of D-luciferin was added to each well and incubated for 10 min. Luminescence was measured using a BMG plate reader and percentage cell viability versus incubation time was determined.

[1] = 0.5 h, mean, suramin, fexinidazole, SCYX-7158 11 µM, CTCB-405 4 µM
[2] = 1 h, mean, suramin, fexinidazole, SCYX-7158 11 µM, CTCB-405 4 µM
[3] = 6 h, mean, suramin, fexinidazole, SCYX-7158 11 µM, CTCB-405 4 µM
[4] = 8 h, mean, suramin, fexinidazole, SCYX-7158 11 µM, CTCB-405 4 µM
[5] = GVR35 TTK, 24 h incubation, average
[6] = GVR35 TTK, 24 h incubation, from average
[7] = GVR35 TTK, 24 h sheet, summary line marked "4"

For `CC1(C)OB(O)c2cc(NC(=O)c3ccc(F)cc3C(F)(F)F)ccc21` [SCYX-7158], the “% Cell viability, single replicates” value (0.5 h) was 82% and 93%, the “% Inhibition, single replicates” value (0.5 h) was 18% and 6.51% and the “% Cell viability” value (0.5 h, average) was 88%. For the same compound, the “% Inhibition” value [1] was 12%, the “% Cell viability, single replicates” value (1 h) was 78% and the “% Inhibition, single replicates” value (1 h) was 22%. For the same compound, the “% Cell viability” value (1 h, average) was 80%, the “% Inhibition” value [2] was 20% and the “% Cell viability, single replicates” value (2 h) was 84% and 77%. For the same compound, the “% Inhibition, single replicates” value (2 h) was 16% and 23%, the “% Cell viability” value (2 h, average) was 80% and the “% Cell viability, single replicates” value (4 h) was 53% and 55%. For the same compound, the “% Inhibition, single replicates” value (4 h) was 47% and 45%, the “% Cell viability” value (4 h, average) was 54% and the “% Inhibition” value (4 h, mean, suramin, fexinidazole, SCYX-7158 11 µM, CTCB-405 4 µM) was 46%. The “% Cell viability, single replicates” value (6 h) was 30% and 31%, the “% Inhibition, single replicates” value (6 h) was 70% and 69% and the “% Cell viability” value (6 h, average) was 31%. The “% Inhibition” value [3] was 69%, the “% Cell viability, single replicates” value (8 h) was 16% and 15% and the “% Inhibition, single replicates” value (8 h) was 84% and 85%. For the same compound, the “% Cell viability” value (8 h, average) was 16%, the “% Inhibition” value [4] was 84% and the “% Cell viability, Average” value [5] was -0.0868%. For the same compound, the “Luminescence (medium-subtracted), Average” value (GVR35 TTK, 24 h incubation) was 8.5, the “% Inhibition” value [6] was 100% and the “% Cell viability, individual replicates” value (GVR35 TTK, 24 h incubation) was -0.0698% and -0.104%. The “% Inhibition, individual replicates” value (GVR35 TTK, 24 h incubation) was 100%, the “Luminescence (medium-subtracted), individual replicates” value (GVR35 TTK, 24 h incubation) was 16.5 and 0.5 and the “% Cell viability” value [7] was -0.085%. For the same compound, the “Luminescence, Average” value (0.5 hour incubation) was 8054, the “Luminescence, individual replicates” value (0.5 hour incubation) was 7697 and 8411 and the “Luminescence, Average” value (1hour incubation) was 9657. The “Luminescence, individual replicates” value (1hour incubation) was 9531 and 9783, the “Luminescence, Average” value (2hour incubation) was 11337 and the “Luminescence, individual replicates” value (2hour incubation) was 11424 and 11249. For the same compound, the “Luminescence, Average” value (4hour incubation) was 9915, the “Luminescence, individual replicates” value (4hour incubation) was 9827 and 10004 and the “Luminescence, Average” value (6hour incubation) was 10493. The “Luminescence, individual replicates” value (6hour incubation) was 10240 and 10745, the “Luminescence, Average” value (8hour incubation) was 4975 and the “Luminescence, individual replicates” value (8hour incubation) was 5108 and 4842. The “Luminescence, Average” value (24hour incubation) was 8.5 and the “Luminescence, individual replicates” value (24hour incubation) was 17 and 0.5.
With `CSc1ccc(OCc2ncc([N+](=O)[O-])n2C)cc1` [Fexinidazole, fexinidazole] the “TTK (time-to-kill) value” was greater than 20 h, the “% Cell viability, single replicates” value (0.5 h) was 54% and 59% and the “% Inhibition, single replicates” value (0.5 h) was 46% and 41%. For the same compound, the “% Cell viability” value (0.5 h, average) was 57%, the “% Inhibition” value [1] was 43% and the “% Cell viability, single replicates” value (1 h) was 46% and 57%. The “% Inhibition, single replicates” value (1 h) was 54%, the “% Cell viability” value (1 h, average) was 52% and the “% Inhibition” value [2] was 48%. For the same compound, the “% Cell viability, single replicates” value (2 h) was 61%, the “% Inhibition, single replicates” value (2 h) was 39% and the “% Cell viability” value (2 h, average) was 57%. The “% Cell viability, single replicates” value (4 h) was 58% and 63%, the “% Inhibition, single replicates” value (4 h) was 42% and 37% and the “% Cell viability” value (4 h, average) was 61%. The “% Cell viability, single replicates” value (6 h) was 62% and 60%, the “% Inhibition, single replicates” value (6 h) was 38% and 40% and the “% Cell viability” value (6 h, average) was 61%. For the same compound, the “% Cell viability, single replicates” value (8 h) was 55%, the “% Inhibition, single replicates” value (8 h) was 45% and the “% Cell viability” value (8 h, average) was 55%. For the same compound, the “% Inhibition” value [4] was 45%, the “% Cell viability, Average” value [5] was 18% and the “Luminescence (medium-subtracted), Average” value (GVR35 TTK, 24 h incubation) was 18856.5. The “% Inhibition” value [6] was 83%, the “% Cell viability, individual replicates” value (GVR35 TTK, 24 h incubation) was 16% and 19% and the “% Inhibition, individual replicates” value (GVR35 TTK, 24 h incubation) was 84% and 81%. The “Luminescence (medium-subtracted), individual replicates” value (GVR35 TTK, 24 h incubation) was 18923.5 and 18789.5, the “Luminescence, Average” value (0.5 hour incubation) was 5213 and the “Luminescence, individual replicates” value (0.5 hour incubation) was 5083 and 5343. The “Luminescence, Average” value (1hour incubation) was 6274, the “Luminescence, individual replicates” value (1hour incubation) was 5678 and 6870 and the “Luminescence, Average” value (2hour incubation) was 8146. The “Luminescence, individual replicates” value (2hour incubation) was 8389 and 7903, the “Luminescence, Average” value (4hour incubation) was 11135 and the “Luminescence, individual replicates” value (4hour incubation) was 10890 and 11380. The “Luminescence, Average” value (6hour incubation) was 20713, the “Luminescence, individual replicates” value (6hour incubation) was 21007 and 20418 and the “Luminescence, Average” value (8hour incubation) was 17103. The “Luminescence, individual replicates” value (8hour incubation) was 17279 and 16927, the “Luminescence, Average” value (24hour incubation) was 18857 and the “Luminescence, individual replicates” value (24hour incubation) was 18924 and 18790.
With `Cc1ccc(C(=O)Nc2ccc(S(=O)(=O)O)c3cc(S(=O)(=O)O)cc(S(=O)(=O)O)c23)cc1NC(=O)c1cccc(NC(=O)Nc2cccc(C(=O)Nc3cc(C(=O)Nc4ccc(S(=O)(=O)O)c5cc(S(=O)(=O)O)cc(S(=O)(=O)O)c45)ccc3C)c2)c1` [Suramin, suramin] the “TTK (time-to-kill) value” was greater than 20 h, the “% Cell viability, single replicates” value (0.5 h) was 91% and 97% and the “% Inhibition, single replicates” value (0.5 h) was 9% and 2.59%. For the same compound, the “% Cell viability” value (0.5 h, average) was 94%, the “% Inhibition” value [1] was 6% and the “% Cell viability, single replicates” value (1 h) was 87% and 92%. For the same compound, the “% Inhibition, single replicates” value (1 h) was 13% and 7.55%, the “% Cell viability” value (1 h, average) was 90% and the “% Inhibition” value [2] was 10%. The “% Cell viability, single replicates” value (2 h) was 95% and 89%, the “% Inhibition, single replicates” value (2 h) was 4.69% and 11% and the “% Cell viability” value (2 h, average) was 92%. For the same compound, the “% Inhibition” value (2 h, mean, suramin, fexinidazole, SCYX-7158 11 µM, CTCB-405 4 µM) was 8%, the “% Cell viability, single replicates” value (4 h) was 86% and the “% Inhibition, single replicates” value (4 h) was 14% and 8.56%. The “% Cell viability” value (4 h, average) was 89%, the “% Cell viability, single replicates” value (6 h) was 80% and 82% and the “% Inhibition, single replicates” value (6 h) was 20% and 18%. The “% Cell viability” value (6 h, average) was 81%, the “% Inhibition” value [3] was 19% and the “% Cell viability, single replicates” value (8 h) was 62% and 63%. The “% Inhibition, single replicates” value (8 h) was 38% and 37%, the “% Cell viability” value (8 h, average) was 62% and the “% Inhibition” value [4] was 38%. For the same compound, the “% Cell viability, Average” value [5] was 1.08%, the “Luminescence (medium-subtracted), Average” value (GVR35 TTK, 24 h incubation) was 1271 and the “% Inhibition” value [6] was 99%. The “% Cell viability, individual replicates” value (GVR35 TTK, 24 h incubation) was 1.06% and 1.11%, the “% Inhibition, individual replicates” value (GVR35 TTK, 24 h incubation) was 99% and the “Luminescence (medium-subtracted), individual replicates” value (GVR35 TTK, 24 h incubation) was 1370.5 and 1171.5. The “% Cell viability” value [7] was 1.08%, the “Luminescence, Average” value (0.5 hour incubation) was 8640 and the “Luminescence, individual replicates” value (0.5 hour incubation) was 8520 and 8761. The “Luminescence, Average” value (1hour incubation) was 10793, the “Luminescence, individual replicates” value (1hour incubation) was 10604 and 10981 and the “Luminescence, Average” value (2hour incubation) was 13042. For the same compound, the “Luminescence, individual replicates” value (2hour incubation) was 13027 and 13057, the “Luminescence, Average” value (4hour incubation) was 16276 and the “Luminescence, individual replicates” value (4hour incubation) was 16058 and 16495. The “Luminescence, Average” value (6hour incubation) was 27456, the “Luminescence, individual replicates” value (6hour incubation) was 27109 and 27803 and the “Luminescence, Average” value (8hour incubation) was 19408. The “Luminescence, individual replicates” value (8hour incubation) was 19222 and 19594, the “Luminescence, Average” value (24hour incubation) was 1271 and the “Luminescence, individual replicates” value (24hour incubation) was 1371 and 1172.
